Assay results taken from patent publication US9932300B2, “N,N′-diarylurea compounds and N,N′-diarylthiourea compounds as inhibitors of translation initiation” (President and Fellows of Harvard College, priority 2009, dated 2018).

Tested on: eIF2-GTP-Met-tRNAi ternary complex
Test: Ternary complex assay (dual luciferase, firefly/renilla ratio) in stable KLN-tTA/pBISA-DL(ATF-4) cells; HTS and hit confirmation
Format: cell-based, mouse
Parameters: Activity 10 uM / Activity 2.5 uM / Activity 5 uM: unit not given here
Conditions: confirmed hits of the screen (Table 5); for Activity 2.5 uM: compound at 2.5 uM; for Activity 10 uM: compound at 10 uM; for Activity 5 uM: compound at 5 uM

SMILES | Activity 2.5 uM | Activity 10 uM | Activity 5 uM
NNc1nc2ccc([N+](=O)[O-])cc2s1 [Compound 158091] | 1.66 | 4.83 | 
O=C(Nc1ccc2ccccc2c1)c1ccc(Cl)cc1Cl [Compound 158959] | 3.2 | 4.01 | 
c1ccc2ncc(-c3ccc4ccccc4n3)cc2c1 [Compound 159209] |  | 8.5 | 4.3
CC1=C(Br)C(=O)C(c2c(C)cc(C)c(Br)c2C)=C(Br)C1=O [Compound 159569] |  | 5.804 | 3.21
CC(=O)Nc1cccc(/C=C/C=C/c2ccc([N+](=O)[O-])cc2)c1 [Compound 161089] | 1.67 | 3.53 | 
CCCN(/C=C/C=C/C=[N+](CCC)CCC)CCC.[O-][Cl+3]([O-])([O-])[O-] [Compound 161504] |  | 5.3 | 2.6
C=C1N(c2cc3ccccc3o2)C(=O)OC12CCCCC2 [Compound 162375] | 1.7 | 3.07 | 
Cc1ccc2nc(-c3ccccc3N)[nH]c2c1 [Compound 163454] |  | 3.5 | 2.2
Cl.c1ccc2c(c1)Cn1c-2nc2ccccc21 [Compound 163482] | 1.588 | 3.207 | 
O=C1c2ccccc2-c2nc3cc4ccccc4cc3nc21 [Compound 163547] | 3.27 | 4.38 | 
[Hg+][c]1ccccc1.[O-]B(O)O [Compound 163948] | 5.67 |  | 
CCc1ccc(NC(=O)Nc2cccc(Cl)c2)cc1 [Compound 164212] | 2.04 | 4.07 | 
Cc1cccnc1.Cc1cccnc1.Cc1cccnc1.Cc1cccnc1.[Cl-].[Cl][Rh-][Cl] [Compound 165688] |  | 14.6965 | 17.91
Clc1ccc(Cl)c(NNc2cc(Cl)ccc2Cl)c1 [Compound 165765] | 1.34 | 4.44 | 
C(=C(\C[P+](c1ccccc1)(c1ccccc1)c1ccccc1)c1ccccc1)/c1ccccc1 [Compound 167334] |  | 12.373 | 11.387
Oc1ccc2ccccc2c1/C=N/Nc1ccc2ccccc2n1 [Compound 168465] |  | 6 | 2.2
N#Cc1c(F)c(F)c(Oc2c(F)c(F)c(F)c(F)c2F)c(F)c1Oc1c(F)c(F)c(F)c(F)c1F [Compound 168745] | 0.39 | 36.37 | 
NNC(=S)N/N=C/c1ccc([N+](=O)[O-])s1 [Compound 170334] | 0.98 | 4.45 | 
N#CC(C#N)=C/C=C/C=C/c1c(Cl)cccc1Cl [Compound 170444] | 0.66 | 12.56 | 
CC(C)c1ccc(N=Nc2ccc(N(C)C)cc2)cc1 [Compound 170582] | 3.72 | 4.44 | 
CN(C)c1ccc(N=Nc2ccc(Cl)c(Cl)c2)cc1 [Compound 170589] | 3.81 | 6.57 | 
CN(C)c1ccc(N=Nc2ccncc2)cc1 [Compound 170600] | 2.21 | 3.46 | 

SMILES | Activity 2.5 uM | Activity 10 uM | Activity 5 uM
c1ccc(N=Nc2n[nH]c3ccccc23)cc1 [Compound 170633] | 5.12 | 8.99 | 
Cc1cnccc1N=Nc1ccc(N(C)C)cc1 [Compound 170639] | 3.93 | 5.38 | 
Nc1cccc2scnc12 [Compound 170680] |  | 6.8 | 2.7
Oc1cccc(C2=NNC(c3cccc(O)c3)=NN2)c1 [Compound 171129] | 5.1 | 7.98 | 
Oc1ccc(-c2nnc(-c3ccccc3)nn2)cc1 [Compound 171134] | 2.89 | 3.68 | 
COC1/C=C/OC2(C)Oc3c(C)c(O)c4c(O)c(c(C=NN5CCCCCCCC5)c(O)c4c3C2=O)NC(=O)/C(C)=C/C=C/C(C)C(O)C(C)C(O)C(C)C(OC(C)=O)C1C (centres unmarked) [Compound 172656] |  | 3.9 | 1.6
O=C(Nc1cccc(Cl)c1)NC1CCC(CC2CCCCC2)CC1.O=C(Nc1cccc(Cl)c1)NC1CCC(CC2CCCCC2)CC1 (centres unmarked) [Compound 172879] | 1.11 | 3.6 | 
CC(C)(C)C1CCC(NC(=O)C(Cl)Cl)CC1.CC(C)(C)C1CCC(NC(=O)C(Cl)Cl)CC1 (centres unmarked) [Compound 173000] | 0.61 | 3.68 | 
CO[C@H]1/C=C/O[C@@]2(C)Oc3c(C)c(O)c4c(O)c(c(/C=N/N5CCN(Cc6cccc(C(F)(F)F)c6)CC5)c(O)c4c3C2=O)NC(=O)/C(C)=C\C=C\[C@H](C)[C@H](O)[C@@H](C)[C@@H](O)[C@@H](C)[C@H](OC(C)=O)[C@@H]1C [Compound 173710] | 0.83 | 16.35 | 
Cc1ccc(-c2nc(C#N)c(C#N)nc2-c2ccc(C)cc2)cc1 [Compound 174794] |  | 33.869 | 24.857
Oc1ccc(-c2nnc(-c3ccc(O)cc3)nn2)cc1 [Compound 174877] | 3.04 | 3.29 | 
[CH3][Hg][O]C(C)=O [Compound 176145] | 3.81 |  | 
CS(=O)(=O)c1ccc(/C=C2\C=Cc3ccccc32)cc1 [Compound 176657] | 1.67 | 4.64 | 
FC(F)(F)c1cccc(-c2nc3nc(Cl)c(Cl)nc3[nH]2)c1 [Compound 177407] |  | 21.876 | 16.53
CCC[CH2][Sn]([CH2]CCC)([CH2]CCC)[n]1ccnc1 [Compound 179739] | 0.98 | 3.62 | 
CCCCC[CH2][Sn]([CH2]CCCCC)([CH2]CCCCC)[NH]S(=O)(=O)c1ccc(C)cc1 [Compound 179762] | 0.72 | 18.35 | 
Clc1nn2nnnc2c2ccccc12 [Compound 179944] | 0.54 | 6.1 | 
Cc1cc(C)nc(NC(=S)N/N=C/c2ccccn2)n1 [Compound 185066] |  | 20.339 | 44.91
N#Cc1nc2c3ccccc3c(N=NC(=N)N[N+](=O)[O-])c-2[nH]c1C#N [Compound 186256] |  | 3.71 | 3.212
N#Cc1nc2c3ccccc3c(N=NC(N)=S)c-2[nH]c1C#N [Compound 186257] |  | 59.966 | 49.982
CC(/C=N/O)=N\O.CC(/C=N/O)=N\O.[Pd] [Compound 186948] |  | 4.4425 | 4.507
COc1ccc(NC(=O)Nc2ccccc2Cl)c(Cl)c1 [Compound 191346] |  | 4.4055 | 3.018

SMILES | Activity 2.5 uM | Activity 10 uM | Activity 5 uM
O=C(/C=C/c1ccccc1)Nc1ccc(Cl)c(Cl)c1 [Compound 191395] |  | 7.0185 | 3.609
CC12CC3CC(C)(C1)CC(SCCN=C(N)CCl)(C3)C2.Cl [Compound 193484] | 1.24 | 22.72 | 
N#Cc1nc2c(nc1C#N)-c1ccccc1/C2=C1/C(=O)Cc2ccccc21 [Compound 193713] | 0.55 | 24.26 | 
CCC[CH2][Sn]1([CH2]CCC)[O]CC2(CCCCC2)C[O]1 [Compound 194646] | 8.08 | 6.24 | 
C=C1CC2(OC1=O)C(=O)N(C)c1ccccc12 (centres unmarked) [Compound 194807] | 1.72 | 3.45 | 
COc1ccc(NC(=S)Nc2ccccc2S)cc1 [Compound 201570] | 2.16 | 3.02 | 
C/C(=N\N=C(/C)c1ccc(F)cc1)c1ccc(F)cc1 [Compound 202060] |  | 5.049 | 3.63
CCS(=O)(=O)/C=C/c1ccc2ccccc2n1 [Compound 202491] | 0.5 | 3.05 | 
CCCC[CH2][Sn]([CH2]CCCC)[CH2]CCCC.CCCC[CH2][Sn]([CH2]CCCC)[CH2]CCCC [Compound 202674] | 4.67 |  | 
CCC[CH2][Sn]([C]#[C][Sn]([CH2]CCC)([CH2]CCC)[CH2]CCC)([CH2]CCC)[CH2]CCC [Compound 203205] | 3.12 |  | 
C(=P(c1ccccc1)(c1ccccc1)c1ccccc1)[P+](c1ccccc1)(c1ccccc1)c1ccccc1.[Br-].[Br-].[Cu+] [Compound 203423] | 7.7 | 3.09 | 
O=C(Nc1ccc(Cl)c(Cl)c1)c1ccc(Cl)cc1 [Compound 204163] | 2.44 | 4.83 | 
Cc1cc(Cl)c(Cl)cc1NC(=O)c1ccc(Cl)cc1Cl [Compound 204246] | 1.92 | 3.49 | 
COc1ccccc1C(=O)N/N=C\c1ccc(Cl)cc1Cl [Compound 204386] |  | 6.0225 | 5.252
CN(C)c1ccc(N=Nc2cccc([N+](=O)[O-])c2)cc1 [Compound 204512] | 2.67 | 4.16 | 
Cc1ccc(N=Nc2ccc(N(C)C)cc2)cc1 [Compound 204514] | 3.6 | 4.66 | 
CN(C)c1ccc(N=Nc2cccc(Cl)c2)cc1 [Compound 204515] | 2.84 | 5.31 | 
O=C(Nc1ccc2ccccc2c1)c1ccccc1Cl [Compound 204548] | 2.82 | 3.99 | 
CSc1ccc(NC(=O)c2ccc(Cl)cc2Cl)cc1 [Compound 204668] |  | 4.923 | 5.386
O=C(COc1ccc(Cl)cc1)Nc1nccs1 [Compound 204716] | 2.2 | 3.01 | 
CCc1ccc(NC(=O)Nc2ccc(Cl)c(Cl)c2)cc1 [Compound 204750] | 3.53 | 24.26 | 
O=C(Nc1ccc(Cl)c(Cl)c1)OCC1CC2C=CC1C2 (centres unmarked) [Compound 204751] | 2.91 | 4.76 | 
